Values of other authors, collected in US9114602B2, “Process for making lithographic printing plate” (FUJIFILM Corporation, priority 2011, dated 2015).

Details: at 20° C.

Which solubility in water does the source give for CCCCOCC(C)O (centres unmarked) [propylene glycol mono-n-butyl ether] here?
Its solubility in water is 4.4 g/100 mL.

Which solubility in water does the source give for CCCCOCCOCCOC(C)=O [diethylene glycol monobutyl ether acetate] here?
Its solubility in water is 6.5 g/100 mL.

Which solubility in water does the source give for CC(C)(C)CO [neopentyl alcohol] here?
Its solubility in water is 3.5 g/100 mL.

For CCC(O)CC [Example 3-pentanol, 3-pentanol], which solubility in water is on record?
Its solubility in water is 5.2 g/100 mL.

With CC(=O)OC(C)C [isopropyl acetate] as the molecule, how does the solubility in water read?
Its solubility in water is 4.3 g/100 mL.

For OCc1ccccc1 [benzyl alcohol], which solubility in water is on record?
The solubility in water was 4.0 g/100 mL.

Which solubility in water does the source give for CCC(=O)CC [diethyl ketone] here?
Its solubility in water is 1.7 g/100 mL.

With CCCCCCOCCO [Ethylene glycol mono-n-hexyl ether, reference compound] as the molecule, how does the solubility in water read?
Its solubility in water is 1.0 g/100 mL.

For OCCOc1ccccc1 [ethylene glycol monophenyl ether], which solubility in water is on record?
Its solubility in water is 2.7 g/100 mL.

With CC(C)CC(C)O (centres unmarked) [4-methyl-2-pentanol] as the molecule, how does the solubility in water read?
The solubility in water was 2.0 g/100 mL.

For CCCCCO [Example 1-pentanol, 1-pentanol], which solubility in water is on record?
Its solubility in water is 2.7 g/100 mL.

With CCCOC(C)=O [propyl acetate] as the molecule, how does the solubility in water read?
The solubility in water was 1.6 g/100 mL.

Which solubility in water does the source give for CCCC(C)=O [Example 2-pentanone, 2-pentanone] here?
The solubility in water was 4.0 g/100 mL.

With CCCC(C)O (centres unmarked) [Example 2-pentanol, 2-pentanol] as the molecule, how does the solubility in water read?
The solubility in water was 4.5 g/100 mL.

For CCC(C)CO (centres unmarked) [2-methyl-1-butanol], which solubility in water is on record?
The solubility in water was 3.0 g/100 mL.

Which solubility in water does the source give for CC(C)CCO [3-methyl-1-butanol] here?
Its solubility in water is 2.7 g/100 mL.

With CC(C)C(C)O (centres unmarked) [3-methyl-2-butanol] as the molecule, how does the solubility in water read?
The solubility in water was 5.6 g/100 mL.
